Measured values taken from US20100217003A1, “1,2,3,4-TETRAHYDROISOQUINOLINE DERIVATIVES HAVING EFFECTS OF PREVENTING AND TREATING DEGENERATIVE AND INFLAMMATORY DISEASES” (priority 2006, published 2010).

System: activated microglial cell
Assay: BH4 production in an activated microglial cell
Format: cell-based
Details: activated microglial cell (FIG. 12)

COc1cc2c(cc1O)CNCC2 [HMTIQ, 7-hydroxy-6-methoxy-1,2,3,4-tetrahydroisoquinoline]
BH4 production: inhibitory effect
